These results are taken from patent publication US20250163086A1, “Crystalline Forms” (Viatris Asia Pacific Pte. Ltd., priority 2016, published 2025).

A short description of the data set: Water content of the crystalline forms (gravimetric vapour sorption, 25° C.). Format: physicochemical. To be noted: water content varies as a function of relative humidity; GVS profiles 20 to 75% RH at 25° C. (FIGS. 4-6); hydrochloride. The protocol: Measurements were performed on an IGASORP Model HAS-036-080 moisture sorption instrument (Hiden Isochema, Warrington, UK) operated in stepping mode at 25° C. The sample was allowed to equilibrate at the starting relative humidity (RH) before starting a pre-defined humidity program in steps of 5% ΔRH and with a maximal equilibration time of 24 hours per step. About 20 to 30 mg of each sample was used.

With `CCCCOC(=O)N1CCN(C(=O)[C@H](CP(=O)(O)O)NC(=O)c2cc(N3CC[C@H](OC)C3)nc(-c3ccccc3)n2)CC1.Cl` [Crystalline form 1, 4-((R)-2-{[6-((S)-3-methoxy-pyrrolidin-1-yl)-2-phenyl-pyrimidine-4-carbonyl]-amino}-3-phosphono-propionyl)-piperazine-1-carboxylic acid butyl ester hydrochloride], the “coordinated and/or non-coordinated water comprised in the crystalline form” value is 0 to 3%.

Take `CCCCOC(=O)N1CCN(C(=O)[C@H](CP(=O)(O)O)NC(=O)c2cc(N3CC[C@H](OC)C3)nc(-c3ccccc3)n2)CC1.Cl` [Crystalline form 2, 4-((R)-2-{[6-((S)-3-methoxy-pyrrolidin-1-yl)-2-phenyl-pyrimidine-4-carbonyl]-amino}-3-phosphono-propionyl)-piperazine-1-carboxylic acid butyl ester hydrochloride]: the “coordinated and/or non-coordinated water comprised in the crystalline form” value lay within 5 to 10%.

Regarding `CCCCOC(=O)N1CCN(C(=O)[C@H](CP(=O)(O)O)NC(=O)c2cc(N3CC[C@H](OC)C3)nc(-c3ccccc3)n2)CC1.Cl` [Crystalline form 3, 4-((R)-2-{[6-((S)-3-methoxy-pyrrolidin-1-yl)-2-phenyl-pyrimidine-4-carbonyl]-amino}-3-phosphono-propionyl)-piperazine-1-carboxylic acid butyl ester hydrochloride], the “coordinated and/or non-coordinated water comprised in the crystalline form” value was in the range of 2.5 to 8%.
